Measured values taken from patent US12433855B2, “Method of inhibiting gram-negative bacterial quorum signalling molecules using the macrocycle pillar[5]arene” (AALTO UNIVERSITY FOUNDATION SR, priority 2018, dated 2025).
Entries after “also recorded” stand apart in the source; their conditions may differ.

Assays:
[1] = Binding of HSLs having carbon chains of different lengths
[2] = test system: Pseudomonas aeruginosa; assay: Pyocyanin assay; format: cell-based; details: for production of pyocyanin: 24 hours of growth, OD695
From the text: In testing the functionality of P[5]a as an actual quorum sensing inhibitor a pathogenic Gram-negative bacterium, Pserudomonas aeruginosa, which contains the LasI synthase that produces the 3-oxo-C12 HSL, was used.
P. aeruginosa utilizes multiple quorum sensing systems (Las, Rhl and Pqs). The Las system is at the top of a cascade that leads to the activation of the other quorum sensing systems, and is directly responsible for the production of the green toxin pyocyanin. Pyocyanin is a toxin produced by Pseudomonas aeruginosa, and the production is directly activated by the 3-oxo-C12 HSL. Pyocyanin is responsible for the death of cells in the lung during cystic fibrosis. Thus, the production of this toxin is related directly to the C12 Las AHL signal in a quorum-based response.
Bacterial cells were cultured for 24 hours in Luria Broth (LB) medium with […] added. Then, the culture fluid was separated from the cells and measured at OD695 (this measures the amount of green color).
In a pyocyanin assay, the effect of varying concentrations of a P[5]a (4,9,14,19,24,26,28,30,32,34-Deca[2-(trimethylaminio)ethoxy]hexacyclo[21.2.2.2^3,6.2^8,11.2^13,16.2^18,21]pentatriaconta-1(25),3,5,8,10,13,15,18,20,23,26,28,30,32,34-pentadecaene⋅10bromide, CAS No. 1351445-28-7) on the production of pyocyanin after 24 hours of growth was studied and the results are shown in FIG. 12.

[3] = test system: A549 cells; assay: Viability of A549 cells, trypan blue staining; format: cell-based, human; details: different concentrations of P[5]a, with vs without
Description: (§1) To assess the possible toxicity of P[5]a on the lung cells, two independent viability tests were performed. First, the viability of A549 cells grown in the presence of different concentrations of P[5]a was determined using trypan blue staining. […] Subsequently, the CellTox Green Cytotoxicity Assay (Promega) was carried out for A549 cells grown with and without P[5]a, in the presence or absence of PAO1 P. aeruginosa strain. […] This was not observed for cells grown with the addition of P[5]a in the growth medium.

[4] = test system: A549 cells; assay: CellTox Green Cytotoxicity Assay; format: cell-based, human
Description: as §1

[5] = test system: A549 cells infected with P. aeruginosa; assay: Gene expression (total RNA) of A549 cells infected with P. aeruginosa; format: cell-based, human
Description: In order to further study the influence of P[5]a on the eukaryotic cells, total RNA was isolated from A549 cells infected with P. aeruginosa in the presence or absence of 100 nM or 2.5 mM P[5]a. The expression of 46 genes were affected strongly enough to meet our stringent criteria and be considered as differentially expressed during the infection with PAO1.

[6] = Stability and dissolution in water; format: physicochemical

For Resorcin[4]arene, the “binding to N-acyl-homoserine lactones (AHLs)” value (from here on “binding … (AHLs)”) [1] was “found to bind”.
With `C[N+](C)(C)CCOc1cc2c(OCC[N+](C)(C)C)cc1Cc1cc(OCC[N+](C)(C)C)c(cc1OCC[N+](C)(C)C)Cc1cc(OCC[N+](C)(C)C)c(cc1OCC[N+](C)(C)C)Cc1cc(OCC[N+](C)(C)C)c(cc1OCC[N+](C)(C)C)Cc1cc(OCC[N+](C)(C)C)c(cc1OCC[N+](C)(C)C)C2.[Br-].[Br-].[Br-].[Br-].[Br-].[Br-].[Br-].[Br-].[Br-].[Br-]` [P[5]a, 4,9,14,19,24,26,28,30,32,34-Deca[2-(trimethylaminio)ethoxy]hexacyclo[21.2.2.2^3,6.2^8,11.2^13,16.2^18,21]pentatriaconta-1(25),3,5,8,10,13,15,18,20,23,26,28,30,32,34-pentadecaene⋅10bromide] the cellular growth ([2]; P. aeruginosa culture) was “not affected at all”, the production of pyocyanin ([2]; higher concentrations of P[5]a) was “complete inhibition; also recorded: completely inhibit toxin production” and the production of pyocyanin ([2]; no or low concentrations of P[5]a) was “no significant differences”. For the same compound, the “viability of A549 cells (trypan blue)” value [3] was “no significant difference”, the “increase in fluorescence (indicator of cell death)” value ([4]; A549 cells grown with P[5]a, absence of PAO1) was “not observed” and the “cell death during infection with PAO1 strain” value ([4]; A549 cells infected with PAO1 P. aeruginosa, P[5]a in growth medium) was “reduction in cell death in a dose dependent manner”. The “overexpression of differentially expressed genes during infection” value ([5]; 100 nM or 2.5 mM P[5]a, PAO1 infection) was “reduced the overexpression of many of the differentially expressed genes”, the “expression of CXCL1, CXCL8, CCL20 and ICAM1” value ([5]; 100 nM or 2.5 mM P[5]a, PAO1 infection, dose-dependent) was “significantly reduced” and the “expression of adrenomodullin (ADM) and colony stimulating factor 2 (CSF2)” value ([5]; P[5]a added to infected A549 culture) was “further overexpression”. For the same compound, the “binding … (AHLs)” value [1] was “found to bind”, the “selectivity of AHL binding by chain length” value [1] was “selectively bind long-chained N-acyl-homoserine lactones” and the dissolution in water [6] was “easily dissolved”. The stability [6] was “very good stability”.
With `C1COCCOCCOCCOCCO1` [15-crown-5, 1,4,7,10,13-Pentaoxacyclopentadecane] the “binding … (AHLs)” value [1] was “found to bind”.
With `O=C1N2CN3C(=O)N4CN5C(=O)N6CN7C(=O)N8CN9C(=O)N%10CN%11C(=O)N%12CN1C1C2N2CN%13C(=O)N(CN%14C(=O)N(CN%15C(=O)N(CN%16C(=O)N(CN%17C(=O)N(CN1C2=O)C%12C%11%17)C%10C9%16)C8C7%15)C6C5%14)C4C3%13` (stereo not shown) [cucurbit[6]uril, Cucurbit[6]uril hydrate] the “binding … (AHLs)” value [1] was “found to bind”.
With `O=S(=O)(O)c1cc2c(O)c(c1)Cc1cc(S(=O)(=O)O)cc(c1O)Cc1cc(S(=O)(=O)O)cc(c1O)Cc1cc(S(=O)(=O)O)cc(c1O)C2` [4-sulfocalix[4]arene, 25,26,27,28-Tetrahydroxycalix[4]arene-5,11,17,23-tetrasulfonic acid] the “binding … (AHLs)” value [1] was “found to bind”.
In the case of `OC[C@H]1O[C@@H]2O[C@H]3[C@H](O)[C@@H](O)[C@@H](O[C@H]4[C@H](O)[C@@H](O)[C@@H](O[C@H]5[C@H](O)[C@@H](O)[C@@H](O[C@H]6[C@H](O)[C@@H](O)[C@@H](O[C@H]7[C@H](O)[C@@H](O)[C@@H](O[C@H]8[C@H](O)[C@@H](O)[C@@H](O[C@H]9[C@H](O)[C@@H](O)[C@@H](O[C@H]1[C@H](O)[C@H]2O)O[C@@H]9CO)O[C@@H]8CO)O[C@@H]7CO)O[C@@H]6CO)O[C@@H]5CO)O[C@@H]4CO)O[C@@H]3CO` [gamma-cyclodextrin, Gamma-cyclodextrin], the “binding … (AHLs)” value [1] is reported as “found to bind”.
For `OC[C@H]1O[C@@H]2O[C@H]3[C@H](O)[C@@H](O)[C@@H](O[C@H]4[C@H](O)[C@@H](O)[C@@H](O[C@H]5[C@H](O)[C@@H](O)[C@@H](O[C@H]6[C@H](O)[C@@H](O)[C@@H](O[C@H]7[C@H](O)[C@@H](O)[C@@H](O[C@H]1[C@H](O)[C@H]2O)O[C@@H]7CO)O[C@@H]6CO)O[C@@H]5CO)O[C@@H]4CO)O[C@@H]3CO` [alpha-cyclodextrin, Alpha-cyclodextrin], the “binding … (AHLs)” value [1] was “found to bind”.
